Measured values taken from the Deep4Chem optical property database.

Experiment: solvent given as SMILES

CCCCCCC1(CCCCCC)c2cc(-c3ccc(-c4ccc(-c5ccc(-c6ccc7c(c6)C(CCCCCC)(CCCCCC)c6cc(-n8c9ccccc9c9ccccc98)ccc6-7)s5)c5nsnc45)s3)ccc2-c2ccc(-n3c4ccccc4c4ccccc43)cc21
absorption maximum (in ClCCl): 513 nm

c1ccc2c[n+]3ccccc3cc2c1
absorption maximum (in O): 396 nm

C=CCNc1ccc2ccc3oc4cc(=[N+](C)C)ccc-4nc3c2c1
absorption maximum (in CC#N): 569 nm
absorption maximum (in CCO): 572 nm
absorption maximum (in ClCCl): 582 nm
absorption maximum (in O): 552 nm

CC(C)(C)N1C(=O)c2c(cc3ccc4cccc5ccc2c3c45)C1O (stereo not drawn)
absorption maximum (in ClC(Cl)Cl): 385 nm

COCCOCCOCN1C(=O)c2ccc3c(-c4ccccc4)c4c5ccc6c7c(ccc(c(-c8ccccc8)c4c4ccc(c2c34)C1=O)c75)C(=O)N(COCCOCCOC)C6=O
absorption maximum (in ClCCl): 630 nm

CCCCN(CCCC)c1ccc(C#Cc2cc(C#Cc3ccc([N+](=O)[O-])cc3)c(C#Cc3ccc([N+](=O)[O-])cc3)cc2C#Cc2ccc(N(CCCC)CCCC)cc2)cc1
absorption maximum (in ClCCl): 417 nm

C[N+]1=C(/C=C/C2=C3Oc4c(cc5c6c4CCCN6CCC5)C(c4ccccc4C(=O)O)=C3CCC2)C(C)(C)c2c1ccc1ccccc21
absorption maximum (in CC#N): 742 nm
absorption maximum (in CCO): 728 nm
absorption maximum (in CO): 730 nm
absorption maximum (in ClC(Cl)Cl): 746 nm

c1ccc(-n2c3ccccc3c3cc(-c4cccc(-n5c6ccccc6c6ncccc65)c4)ccc32)cc1
absorption maximum (in ClCCl): 345 nm

CCCCCCCCCCCCCCCCCCN1C(=O)c2cccc3c(OCCN(C)C)ccc(c23)C1=O
absorption maximum (in CC#N): 363 nm
absorption maximum (in CC(C)=O): 362 nm
absorption maximum (in CCO): 362 nm
absorption maximum (in CCOC(C)=O): 363 nm
absorption maximum (in CCOCC): 359 nm
absorption maximum (in CN(C)C=O): 364 nm
absorption maximum (in ClCCl): 363 nm

CN(C)c1ccc2c(c1)C(=O)c1ccccc1-2
absorption maximum (in C1CCCCC1): 484 nm
absorption maximum (in CC#N): 510 nm
absorption maximum (in CCO): 509 nm
absorption maximum (in c1ccccc1): 507 nm

FC(F)(F)c1ccc(-c2pc3ccccc3s2)cc1 (stereo not drawn)
absorption maximum (in CC#N): 331 nm

N#Cc1ccc(/C=C/c2ccc(C=C(c3ccccc3)c3ccccc3)cc2)cc1
absorption maximum (in C1CCOC1): 366 nm

COc1ccc(-c2cc(N3CCCCC3)c(C#N)c3c2-c2cccc4cccc-3c24)cc1
absorption maximum (in O): 430 nm

CCCCCCCCC1(CCCCCCCC)c2ccccc2-c2ccc(-c3nnc(-c4cccc(-n5c6ccc(C(C)(C)C)cc6c6cc(C(C)(C)C)ccc65)c4)o3)cc21
absorption maximum (in Cc1ccccc1): 345 nm

CCCCC(CC)CN1C(=O)c2cc(Oc3ccc(OC)cc3)c3c4c(Oc5ccc(C(C)(C)C)cc5)cc5c6c(cc(Oc7ccc(C(C)(C)C)cc7)c(c7c(Oc8ccc(OC)cc8)cc(c2c37)C1=O)c64)C(=O)N(c1c(C(C)C)cccc1C(C)C)C5=O (stereo not drawn)
absorption maximum (in Cc1ccccc1): 581 nm

C(#Cc1ccc(C#Cc2ccccc2)cc1)c1ccccc1
absorption maximum (in ClC(Cl)Cl): 328 nm

Cn1cc(-c2nc3ccccc3nc2/C=C/N2CCCC2)c2ccccc21
absorption maximum (in CC#N): 440 nm

CC(C)(C)c1ccc2c(c1)c1cc(C(C)(C)C)ccc1n2-c1ccc(C#Cc2ccc3c4ccc(C#Cc5ccc(C=C(C#N)C#N)cc5)cc4n(-c4ccc(C(F)(F)F)cc4)c3c2)cc1
absorption maximum (in ClCCl): 355 nm

CCCCCCCCn1cc(-n2c(-c3cc(-c4nc5ccc(C)cc5n4-c4cn(CCCCCCCC)nn4)cc(-c4nc5ccc(C)cc5n4-c4cn(CCCCCCCC)nn4)c3)nc3ccc(C)cc32)nn1
absorption maximum (in ClCCl): 309.5 nm

O=C(c1ccc(N2c3ccccc3Sc3ccccc32)cc1)c1ccc2sc3ccccc3c2c1
absorption maximum (in C1CCOC1): 330 nm

CC1=c2ccccc2=[N+]2C1=Cc1c3ccccc3c(-c3[nH]c4ccccc4c3C)n1[B-]2(F)F
absorption maximum (in ClCCl): 611 nm

c1cc2c3cc1c1ccc4c(c1)c1cc(ccc1[C@]15OCCO[C@]41OCCO5)c1ccc4c(c1)c1cc(ccc1[C@]15OCCO[C@]41OCCO5)c1ccc(c3c1)[C@]13OCCO[C@]21OCCO3
absorption maximum (in Cc1ccccc1): 300 nm

C1=C(c2ccc(-c3cccs3)s2)CCCC1
absorption maximum (in C1CCOC1): 341 nm
absorption maximum (in CC#N): 342 nm
absorption maximum (in CCCCCC): 341 nm
absorption maximum (in CCO): 344 nm
absorption maximum (in OCCOCCO): 345 nm
absorption maximum (in c1ccncc1): 345 nm
